Patent publication US7919274B2, “Light-emitting fusion proteins and diagnostic and therapeutic methods therefor” (Dana-Farber Cancer Institute, Inc., priority 2001, dated 2011)
Ends that are not written are not given here.

Tests used:
[1] = target: T1, cdk2 (Homo sapiens, UniProt P24941); experiment: GST pull-down assay with GST-cdk2; format: binding; conditions: 35S-labeled in vitro translates
T1 construct: made in house
Experimental: (§1) FIG. 11 illustrates that cyclin box is required for transcriptional repression by DNA bound cyclin A. (A) U2OS cells were cotransfected with plasmids encoding the indicated TETr-cyclin A variants along with the pUHC 13-3 reporter plasmid and a plasmid encoding β-galactosidase. Cell extracts were prepared and luciferase activity, corrected for β-galactosidase activity, was expressed as fold repression relative to cells producing TETr alone. (B) The indicated TETr-cyclin A variants were translated in vitro in the presence of ^35S-methionine and incubated with GST-cdk2 and glutathione Sepharose. […] In parallel, 20% of the input proteins were resolved by SDS-polyacrylamide gel electrophoresis and detected by autoradiography. (c) pRB defective SAOS-2 cells transfected so as to produce HA-tagged pRB along with the indicated TETr-cyclin A variants were lysed and immunoblotted with anti-HA antibody.
Glutathione S-transferase pull-down assays were performed basically as described previously (Kaelin et al., 1991). Binding reactions contained 10 μl of ^35S-radiolabelled in vitro translates made with a TNT kit (Promega) and approximately 1 μg of the indicated GST fusion protein in 1 ml of NETN (20 mM Tris [pH 8], 100 mM NaCl, 1 mM EDTA, 0.5% Nonidet P-40). Following 1 hour incubation at 4° C. with rocking, the Sepharose was washed 5 times with NETN. […]

[2] = tested on: TETo-driven luciferase reporter plasmid (pUHC13-3); experiment: TETr-fusion transcriptional luciferase reporter gene assay in U2OS cells; format: cell-based, human; conditions: pUHC13-3 reporter
Experimental: (A) is a schematic of reporter plasmid (pUHC 13-3) that contains seven TETracycline operator sequences (TETo) upstream of a minimal CMV promoter that includes a TATA box. (B, C) show U2OS cells were cotransfected with plasmids encoding the indicated TETr fusion proteins along with the pUHC 13-3 reporter plasmid and a plasmid encoding β-galactosidase. Numbers shown at the bottom of the graph indicate the amount of TETr plasmid (in μg). 48 hours later luciferase activity, normalized for β-galactosidase, was determined. Fold repression is the corrected luciferase value for TETr alone divided by the corrected luciferase values for the indicated TETr fusion proteins. Fold activation represents the corrected luciferase values for the indicated TETr fusion proteins divided by the corrected luciferase value for TETr alone. […]
For TETr-fusion transcriptional assay, subconfluent U2OS cells were transiently transfected in 6-well plates in duplicate with 1 μg of […], 1 μg of pUHC13-3 reporter plasmid, and 3 μg of the indicated plasmids encoding TETr-fusion proteins. […] 48 hours after transfection luciferase activity and β-galactosidase activity was determined as described previously (Qin, 1995).

[3] = tested on: pRB; experiment: pRB phosphorylation in pRB-defective SAOS-2 cells; format: cell-based, human; conditions: cointroduced with HA-tagged pRB into SAOS-2 cells
Experimental: FIG. 8 illustrates the production of TETr-cyclins A and E. (A) is a schematic of TETr-cyclin fusion protein. […] The % of transfected cells in G1 and S phase was determined by fluororescence activated cell sorting (FACS).
as §1

[4] = In vitro degradation assay with xenopus egg extracts; format: biochemical; conditions: room temperature
Experimental: Xenopus egg extracts were made as is well known in the art and stored frozen until use. Degradation reactions contained 8 μl of egg extract, 0.1 μl of 100 mg/ml cyclohexamide, 0.25 μl of energy regeneration mix, 0.25 μl of bovine ubiquitin, and 0.4 μl of ^35S-radiolabeled HIF and were carried out at room temperature. At the indicated timepoints 1 μl aliquots were removed and placed in sample buffer. Samples were resolved on 5-15% gradient gels and analyzed by autoradiography. Biotinylated HIF (556-575) peptides were incubated with rabbit reticulocyte lysate, washed, eluted with free biotin, and analyzed by mass spectrometry. 1 μg of HPLC-purified peptide was bound to 30 μl monomeric avidin Sepharose and incubated with 100 μl of rabbit reticulocyte lysate at room temperature for 1 hour with tumbling. Following brief centrifugation the reticulocyte lysate was removed, fresh reticulocyte lysate was added, and the cycle was repeated 6 times. The Sepharose was then washed 4 times with NETN and once with PBS. The modified peptide was eluted in 50 μl of 20 mM ammonium acetate [pH 7.0], 2 mM biotin. […] This peak was not detectable prior to incubation with reticulocyte lysate and was not detected in the corresponding reticulocyte-treated Leu562Ala and Pro564Ala peptides (FIG. 6A). […] Following visualization of standards with ninhydrin radiolabeled proline was detected by autoradiography. […]

[5] = tested on: COS7 cells; experiment: Anti-HA immunoblot of transiently transfected COS7 cells; format: cell-based
Experimental: (A) depicts in vitro ubiquitination of ^35S-labeled wild-type, Leu562A, and Pro564A Gal4-HA-HIF1α (530-652) in the presence of S100 extracts prepared from pVHL-defective renal carcinoma cells stably transfected to produce wild-type pVHL or with empty vector. […] (C) is an anti-HA immunoblot analysis of COS7 cells transiently transfected with 1.5 or 3.5 μg of plasmids encoding wild-type or P564A HA-HIF1α in the absence or presence of desferoxamine.

[6] = target: T2, HA-pVHL bound HIF (Homo sapiens, UniProt P40337); experiment: Peptide elution of HIF coimmunoprecipitated with HA-pVHL from ts20 cells; format: binding; conditions: 7 μg peptide in 65 μl PBS
T2 construct: expressed in transfected cells; host or cells: ts20 cells stably transfected with pIRES-HA-VHL, G418-selected
Experimental: Individual G418-resistant colonies were isolated using cloning cylinders and expanded. Cells producing HA-VHL or HA-VHL (Y98H) were identified by anti-HA immunoblot analysis. […] For the tests shown in FIG. 5C, ts20 cells were grown at the restrictive or permissive temperature for 14 hours, methionine-starved for 90 min, and then grown in the methionine-free media supplemented with ^35S-met ([…]) for 90 min.

[7] = target: T3, pVHL (GST-VHL, elongin B, elongin C complex) (Homo sapiens, UniProt P40337); experiment: VBC-GST pulldown of 35S-labeled in vitro translated proteins; format: binding
T3 construct: made in house; host or cells: E. coli

[8] = tested on: HeLa cells; experiment: Luciferase activity in transiently transfected HeLa cells; format: cell-based
Experimental: To begin to ask whether the ODD-Luc was oxygen sensitive in cells, transient transfection assays were performed. In the first set of experiments, 100 mm tissue culture plates were seeded with 8×10^5 HeLa cells per plate. Eighteen hours later the cells were transiently transfected, using lipofectamine (Gibco), with the pcDNA3 plasmids encoding ODD-Luc or wild-type Luc along with an internal control plasmid encoding Renilla luciferase. Twenty-four hours after transfection the cells were split into 6 well plates and allowed to adhere and grow for 8-12 hours. At this point the hypoxia mimetics desferrioxamine (DFO) or cobalt chloride (CoCl2) were added directly to the media at final concentrations of 500 μM and 200 μM respectively, in duplicate wells. In addition, some wells were not treated so as to serve as controls. 12 hours after treatment with DFO and CoCl2 the cells were lysed with Passive Lysis Buffer (Promega), rocked at room temperature for 20 minutes, and assayed for Firefly and Renilla Luciferase according to the manufacturers instructions. Results were obtained in duplicate and averaged. (FIG. 17). Luciferase activity in HeLa cells containing pcDNA3 plasmids encoding wild-type Luc are presented in the first three bars from the left; while luciferase activity in HeLa cells containing pcDNA3 plasmids encoding ODD-Luc are presented in the fourth through sixth bars from the left.

[9] = Luciferase activity of in vitro translate; format: biochemical; conditions: versus wild-type luciferase
[10] = tested on: Hela cells xenograft tumors; experiment: Imaging of ODD-Luc in xenograft tumors in nude mice; format: in vivo; conditions: subcutaneous Hela tumors, versus Luc sites
Experimental: Polyclonal Hela cells stably transfected with ODD-Luc and Luc were generated. The clones were suspended in PBS and counted. 10^6 cells per injection site were administered subcutaneously in duplicate into the flanks of nude mice (FIG. 18). Upon growth of palpable tumors (approximately 3-4 days) the mice were given intraperitoneal injections of phenobarbital for anesthesia, injected with a weight-adjusted dose of luciferin, and whole body imaged with a Xenogen Camera. To ensure that the difference in luciferase activity was not simply a function of tumor size alone, bidimensional tumor measurements were taken and were approximately equal.

T3 sequence (P40337 whole entry): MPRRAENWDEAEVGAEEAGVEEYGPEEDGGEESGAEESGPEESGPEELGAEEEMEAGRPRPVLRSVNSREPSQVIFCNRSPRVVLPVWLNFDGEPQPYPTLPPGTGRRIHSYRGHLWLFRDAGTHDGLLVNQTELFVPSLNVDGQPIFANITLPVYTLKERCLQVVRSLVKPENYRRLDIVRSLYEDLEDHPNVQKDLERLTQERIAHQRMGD
T3 sequence (Q15370 whole entry partner): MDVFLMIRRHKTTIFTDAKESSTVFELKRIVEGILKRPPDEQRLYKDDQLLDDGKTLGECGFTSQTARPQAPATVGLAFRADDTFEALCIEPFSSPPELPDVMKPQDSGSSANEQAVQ
T3 sequence (Q15369 whole entry partner): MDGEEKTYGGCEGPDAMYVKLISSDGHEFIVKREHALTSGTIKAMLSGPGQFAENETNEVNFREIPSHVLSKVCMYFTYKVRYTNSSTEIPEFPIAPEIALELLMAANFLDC
T2 sequence (P40337 whole entry): as the sequence (P40337 whole entry) above
T2 sequence (P62869 whole entry partner): as the sequence (Q15370 whole entry partner) above, with D40E, C89R, S110G counted along it
T2 sequence (P83940 whole entry partner): as the sequence (Q15369 whole entry partner) above

Substance: Cyclin A (1-310): cyclin A fragment 1-310 fused to TETr
- binding to cdk2 [1]: does not bind to cdk2
- transcriptional effect on TETo-driven luciferase reporter [2]: repressed transcription
- pRB phosphorylation [3]: cannot direct the phosphorylation of pRB

Substance: HIF1α Leu562Ala: HIF1α with Leu562Ala mutation
- stability relative to wild-type HIF1α [4]: far more stable

Substance: HIF1α Pro564Ala: HIF1α with Proline 564 converted to alanine
- stability relative to wild-type HIF1α [4]: far more stable
- sensitivity to the hypoxia-mimetic desferoxamine [5]: insensitive

Substance: HIF (556-575) Pro564Ala peptide: HIF (556-575) peptide with Pro564Ala substitution (DLDLEMLAAYIPMDDDFQLR)
- elution of HIF bound to HA-pVHL [6]: not eluted

Substance: ODD-Luc: Firefly luciferase fused in-frame to HIF1α amino acids 555-575 (ODD) (TDLDLEMLAPYIPMDDDFQLR; also: fused to firefly luciferase (not shown))
- binding of pVHL (GST-VBC pulldown) ([7]; translated in vitro in rabbit reticulocyte lysate): bound
- binding of pVHL (GST-VBC pulldown) ([7]; wheat germ produced): did not bind
- induced luciferase levels versus wild-type luciferase ([8]; after addition of hypoxia-mimetics): comparable
- luciferase values relative to wild-type Luc ([8]; untreated HeLa cells grown in the presence of oxygen): approximately 30%
- luciferase activity in vitro [9]: comparable to wild-type luciferase
- luciferase signal at injection sites (whole body imaging) [10]: attenuated luciferase signal
